The text below walks through data of US20250199015A1, “CYCLIN-DEPENDENT KINASE 2 INHIBITORS FOR MEDICAL TREATMENT” (INCYCLIX BIO, LLC, priority 2022, published 2025).

Structures are written as SMILES. “Also recorded” adds a separate entry of the source. Where two headings read alike, the source gives them in different places.

Data set [1] concerns pRb, cyclin E in FUOV-1 cells. As to the kind of experiment: Western blot pRb and cell cycle proteins. The format is cell-based, human. The settings on record: 30-1000 nM, 24 hours. How it is done:
An independent human ovarian carcinoma cell line, FUOV-1, was grown in DMEM/F12/1× Glutamax/10% fetal bovine serum and plated at 300,000 cells/well in Corning 6 well tissue culture treated plates. Cells were incubated at […] for 24 hours prior to addition of 2 replicates of 0.1% DMSO control and 1 replicate for each treatment. […] Cells were collected by washing each well twice with cold PBS, then scraping cells in the presence of 150 μL cold RIPA with protease and phosphatase inhibitors. Lysates were clarified by centrifugation at 14,000×g for 10 min at 4° C. and supernatants transferred to clean tubes. A BCA assay was performed to determine the protein concentration of each lysate. A total of 30 μg of protein was mixed with sample buffer and reducing agent before being run on a 4-12% SDS-PAGE. Protein was transferred to a nitrocellulose membrane and blocked with LI-COR blocking buffer for 1 hour. Membranes were incubated overnight in primary antibody at 4° C. Following 3 washes with TBS-T, membranes were incubated for 45 minutes in LI-COR secondary antibodies. Following 2 washes in TBS-T, and one TBS wash, membranes were scanned using a LI-COR OdysseyCLx. Image studio was used for image analysis.

Data set [2] is described as follows: Electrocardiogram evaluations in 28-day repeat-dose toxicity study. The format is in vivo, dogs. The settings on record: any dose level. An excerpt: (§1) Safety pharmacology studies described more fully below included a functional observational battery (FOB) testing in a 28-day repeat-dose toxicity study in rats, electrocardiogram (ECG) evaluations in a 28-day repeat-dose toxicity study in dogs, and a single-dose respiratory safety pharmacology study in rats.

Data set [3] can be described thus: Functional observational battery in 28-day repeat-dose toxicity study. The format is in vivo, rats. The settings on record: any dose level.
Source text: as §1

Another data set addresses T1, CYP2D6 (Homo sapiens, UniProt P10635).
T1 construct: human liver microsomes were incubated in the appropriate isoform-specific probe substrate; from tissue; host or cells: human liver microsomes
As to the kind of experiment: CYP inhibition in human liver microsomes. The format is in vitro ADME. How it is done:
(§2) The final DMSO content in the reaction mixtures was ≤0.2%. A selective inhibitor of each isoform was also screened as a positive control. Incubations were terminated by the addition of methanol. The quenched samples were incubated at 4° C. for 10 minutes and filtered by centrifugation for 1 minute at 500 rcf. The supernatants were removed, and the probe substrate metabolites were analyzed by LC-MS/MS.
(§3) The LC-MS/MS system consisted of an AB Sciex API5500 mass spectrometer coupled with an Agilent 1290 liquid chromatography system and an Agilent 1290 Infinity HTS chilled autosampler, controlled through Analyst software (AB Sciex). Samples were analyzed using the following solvent system and gradient: Acquity™ C18 Reverse Phase UPLC HSS T3 (1.8 μm) 2.1×50 mm column; 50° C. Column Temp.; 10 μL Injection Vol.; Mobile Phase A: Water+0.1% Formic Acid; Mobile Phase B: Acetonitrile+0.1% Formic Acid; Flow Rate: 0.6 mL/min.

For the next data set, the target named is T2, CYP2C9 (Homo sapiens, UniProt P11712).
T2 construct: human liver microsomes were incubated in the appropriate isoform-specific probe substrate; from tissue; host or cells: human liver microsomes
Description: CYP inhibition in human liver microsomes. The format is in vitro ADME. Here is the method: as §2, §3
Background: Liver microsomes are a subcellular fraction often used to study metabolism.

The next data set addresses T3, CYP2C8 (Homo sapiens, UniProt P10632).
T3 construct: human liver microsomes were incubated in the appropriate isoform-specific probe substrate; from tissue; host or cells: human liver microsomes
As to the kind of experiment: CYP inhibition in human liver microsomes. The format is in vitro ADME. How it is done: as §2, §3

For a further data set, the target named is T4, CYP2B6 (Homo sapiens, UniProt P20813).
T4 construct: human liver microsomes were incubated in the appropriate isoform-specific probe substrate; from tissue; host or cells: human liver microsomes
Description: CYP inhibition in human liver microsomes. The format is in vitro ADME. How it is done: as §2, §3

The target of another data set is T5, CYP1A2 (Homo sapiens, UniProt P05177).
T5 construct: human liver microsomes were incubated in the appropriate isoform-specific probe substrate; from tissue; host or cells: human liver microsomes
Description: CYP inhibition in human liver microsomes. The format is in vitro ADME. Here is the method:
as §2, §3

In data set [4] the target is T6, CYP3A4 (midazolam as substrate) (Homo sapiens, UniProt P08684).
T6 construct: human liver microsomes were incubated in the appropriate isoform-specific probe substrate; from tissue; host or cells: human liver microsomes
As to the kind of experiment: CYP inhibition in human liver microsomes. The format is in vitro ADME. Here is the method: as §2, §3

For a further data set, the target named is T7, CYP2C19 (Homo sapiens, UniProt P33261).
T7 construct: human liver microsomes were incubated in the appropriate isoform-specific probe substrate; from tissue; host or cells: human liver microsomes
As to the kind of experiment: CYP inhibition in human liver microsomes. The format is in vitro ADME. How it is done:
as §2, §3

Data set [5] concerns the target T8, CYP3A4 (testosterone as substrate) (Homo sapiens, UniProt P08684).
T8 construct: human liver microsomes were incubated in the appropriate isoform-specific probe substrate; from tissue; host or cells: human liver microsomes
As to the kind of experiment: CYP inhibition in human liver microsomes. The format is in vitro ADME. How it is done: as §2, §3

Another data set concerns the target T9, human OATP1B3 (Homo sapiens, UniProt Q9NPD5).
T9 construct: expressed in transfected cells; host or cells: HEK293
T9 sequence (Q9NPD5 1-702): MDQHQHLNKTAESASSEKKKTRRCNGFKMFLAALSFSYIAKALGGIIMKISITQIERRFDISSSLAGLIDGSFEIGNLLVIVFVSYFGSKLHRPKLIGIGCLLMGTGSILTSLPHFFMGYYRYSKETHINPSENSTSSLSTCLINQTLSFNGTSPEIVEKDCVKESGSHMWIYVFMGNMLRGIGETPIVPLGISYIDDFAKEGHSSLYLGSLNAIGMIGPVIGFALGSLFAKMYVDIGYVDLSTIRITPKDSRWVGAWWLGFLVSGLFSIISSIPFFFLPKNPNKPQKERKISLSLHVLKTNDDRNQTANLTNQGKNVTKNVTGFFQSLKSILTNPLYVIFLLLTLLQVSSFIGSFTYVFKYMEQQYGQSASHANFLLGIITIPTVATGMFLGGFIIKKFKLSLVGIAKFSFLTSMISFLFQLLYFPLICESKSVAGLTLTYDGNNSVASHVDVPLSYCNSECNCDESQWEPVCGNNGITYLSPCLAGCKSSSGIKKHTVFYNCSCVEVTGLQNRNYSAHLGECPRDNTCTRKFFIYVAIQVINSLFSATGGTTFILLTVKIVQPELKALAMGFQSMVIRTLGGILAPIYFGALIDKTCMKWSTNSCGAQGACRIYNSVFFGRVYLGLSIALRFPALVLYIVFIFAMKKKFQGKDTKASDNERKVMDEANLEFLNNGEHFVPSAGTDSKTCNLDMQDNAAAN
As to the kind of experiment: SLC transporter inhibition in HEK293 cells. The format is in vitro ADME.

T3 sequence (P10632 whole entry, canonical isoform): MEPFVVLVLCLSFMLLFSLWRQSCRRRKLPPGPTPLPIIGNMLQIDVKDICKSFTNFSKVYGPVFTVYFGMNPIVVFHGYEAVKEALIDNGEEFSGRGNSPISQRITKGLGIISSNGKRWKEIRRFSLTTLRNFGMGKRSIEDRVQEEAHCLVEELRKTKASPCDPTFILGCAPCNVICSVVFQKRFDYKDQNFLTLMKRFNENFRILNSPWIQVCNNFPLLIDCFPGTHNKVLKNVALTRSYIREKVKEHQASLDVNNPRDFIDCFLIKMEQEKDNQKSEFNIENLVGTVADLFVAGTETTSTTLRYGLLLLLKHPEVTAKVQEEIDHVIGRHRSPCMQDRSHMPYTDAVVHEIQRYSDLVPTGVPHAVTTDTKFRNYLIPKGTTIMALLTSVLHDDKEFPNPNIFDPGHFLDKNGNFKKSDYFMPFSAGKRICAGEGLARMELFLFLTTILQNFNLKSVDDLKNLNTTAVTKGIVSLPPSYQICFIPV
T4 sequence (P20813 whole entry, canonical isoform): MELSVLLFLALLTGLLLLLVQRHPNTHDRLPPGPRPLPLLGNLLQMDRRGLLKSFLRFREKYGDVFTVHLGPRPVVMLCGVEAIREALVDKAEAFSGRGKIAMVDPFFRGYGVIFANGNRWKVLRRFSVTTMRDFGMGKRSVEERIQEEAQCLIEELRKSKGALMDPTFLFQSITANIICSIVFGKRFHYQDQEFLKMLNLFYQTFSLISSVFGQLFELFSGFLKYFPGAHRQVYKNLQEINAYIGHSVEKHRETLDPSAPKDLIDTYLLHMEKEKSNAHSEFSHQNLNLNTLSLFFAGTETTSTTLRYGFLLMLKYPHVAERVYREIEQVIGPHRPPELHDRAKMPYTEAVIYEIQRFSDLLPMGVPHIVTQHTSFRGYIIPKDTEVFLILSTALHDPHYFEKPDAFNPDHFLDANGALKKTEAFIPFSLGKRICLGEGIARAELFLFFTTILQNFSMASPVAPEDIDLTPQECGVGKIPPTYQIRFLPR
T1 sequence (P10635 whole entry, canonical isoform): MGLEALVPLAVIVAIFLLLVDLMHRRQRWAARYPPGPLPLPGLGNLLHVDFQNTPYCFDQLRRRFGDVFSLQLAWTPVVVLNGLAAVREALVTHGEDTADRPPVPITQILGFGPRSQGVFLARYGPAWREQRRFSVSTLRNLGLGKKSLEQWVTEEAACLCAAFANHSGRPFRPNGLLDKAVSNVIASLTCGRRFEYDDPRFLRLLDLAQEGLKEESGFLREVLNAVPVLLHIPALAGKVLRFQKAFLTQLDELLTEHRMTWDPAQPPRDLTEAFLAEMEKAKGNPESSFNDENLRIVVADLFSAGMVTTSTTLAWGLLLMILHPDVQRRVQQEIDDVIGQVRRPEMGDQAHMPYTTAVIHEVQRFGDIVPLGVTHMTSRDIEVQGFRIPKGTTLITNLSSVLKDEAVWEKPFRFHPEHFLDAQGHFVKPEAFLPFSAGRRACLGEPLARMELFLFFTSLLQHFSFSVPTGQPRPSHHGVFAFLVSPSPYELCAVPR
T6 sequence (P08684 whole entry, canonical isoform): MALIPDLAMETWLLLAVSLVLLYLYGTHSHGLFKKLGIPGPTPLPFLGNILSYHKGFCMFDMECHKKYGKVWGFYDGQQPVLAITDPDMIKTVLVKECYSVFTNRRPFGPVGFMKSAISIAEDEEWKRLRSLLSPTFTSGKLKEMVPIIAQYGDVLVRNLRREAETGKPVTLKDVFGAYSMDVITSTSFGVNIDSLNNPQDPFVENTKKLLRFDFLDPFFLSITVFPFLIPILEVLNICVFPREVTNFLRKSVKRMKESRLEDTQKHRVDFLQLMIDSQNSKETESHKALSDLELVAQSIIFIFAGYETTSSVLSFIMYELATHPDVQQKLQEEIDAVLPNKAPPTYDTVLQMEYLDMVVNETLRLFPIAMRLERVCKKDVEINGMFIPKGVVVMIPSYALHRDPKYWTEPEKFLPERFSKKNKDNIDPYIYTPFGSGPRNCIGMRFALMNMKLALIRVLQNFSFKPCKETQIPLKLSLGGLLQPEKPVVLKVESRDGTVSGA
T7 sequence (P33261 whole entry, canonical isoform): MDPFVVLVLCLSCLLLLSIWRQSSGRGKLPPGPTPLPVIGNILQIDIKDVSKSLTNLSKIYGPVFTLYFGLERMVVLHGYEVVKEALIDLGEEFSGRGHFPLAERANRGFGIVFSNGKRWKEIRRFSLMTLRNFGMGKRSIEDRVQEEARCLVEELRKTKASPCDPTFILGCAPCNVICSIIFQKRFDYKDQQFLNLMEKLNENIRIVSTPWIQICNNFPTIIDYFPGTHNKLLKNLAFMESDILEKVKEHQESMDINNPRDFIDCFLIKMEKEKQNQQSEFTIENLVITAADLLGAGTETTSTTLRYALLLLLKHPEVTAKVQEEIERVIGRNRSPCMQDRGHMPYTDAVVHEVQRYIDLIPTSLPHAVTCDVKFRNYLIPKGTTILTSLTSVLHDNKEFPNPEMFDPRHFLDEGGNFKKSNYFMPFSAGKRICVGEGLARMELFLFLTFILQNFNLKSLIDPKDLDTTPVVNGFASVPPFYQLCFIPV
T5 sequence (P05177 whole entry, canonical isoform): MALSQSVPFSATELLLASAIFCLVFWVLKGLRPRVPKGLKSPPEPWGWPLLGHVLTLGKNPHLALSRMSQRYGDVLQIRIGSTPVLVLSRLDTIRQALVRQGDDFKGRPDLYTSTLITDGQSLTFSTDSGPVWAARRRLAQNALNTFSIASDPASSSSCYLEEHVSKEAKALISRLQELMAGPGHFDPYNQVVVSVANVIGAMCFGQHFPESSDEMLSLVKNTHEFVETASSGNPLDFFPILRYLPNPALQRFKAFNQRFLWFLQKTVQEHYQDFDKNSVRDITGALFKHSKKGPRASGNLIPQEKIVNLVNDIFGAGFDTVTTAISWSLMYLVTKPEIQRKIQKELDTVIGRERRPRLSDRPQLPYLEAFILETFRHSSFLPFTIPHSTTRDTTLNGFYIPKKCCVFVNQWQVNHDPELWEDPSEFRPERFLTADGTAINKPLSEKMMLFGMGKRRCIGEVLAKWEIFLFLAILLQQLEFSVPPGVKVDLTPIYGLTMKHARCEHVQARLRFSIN
T8 sequence (P08684 whole entry, canonical isoform): as the sequence (P08684 whole entry, canonical isoform) above
T2 sequence (P11712 whole entry, canonical isoform): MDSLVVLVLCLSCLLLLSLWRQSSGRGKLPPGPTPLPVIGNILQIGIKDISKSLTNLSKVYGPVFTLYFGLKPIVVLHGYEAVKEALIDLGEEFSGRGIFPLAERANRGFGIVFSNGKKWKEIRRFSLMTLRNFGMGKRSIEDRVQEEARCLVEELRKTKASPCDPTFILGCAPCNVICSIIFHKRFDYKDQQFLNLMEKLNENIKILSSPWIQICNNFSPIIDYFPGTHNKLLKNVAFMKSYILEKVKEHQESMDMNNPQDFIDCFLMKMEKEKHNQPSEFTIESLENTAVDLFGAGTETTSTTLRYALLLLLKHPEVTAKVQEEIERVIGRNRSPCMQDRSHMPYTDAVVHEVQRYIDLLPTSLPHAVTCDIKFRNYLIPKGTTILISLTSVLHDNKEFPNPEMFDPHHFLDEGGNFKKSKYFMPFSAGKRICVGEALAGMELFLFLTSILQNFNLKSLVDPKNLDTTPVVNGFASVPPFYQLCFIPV

Consider `NS(=O)(=O)c1ccc(Nc2ncc3cc4n(c3n2)C2(CCCCC2)C(=O)NN4)cc1` [Compound I], for which the “cyclin E amplification” value in data set [1] is “no cyclin E amplification was observed”. The pRb levels entry in [1] is “decreases pRb levels in a dose-dependent manner”. Further, in data set [2], the ECGs result is “did not affect; also recorded: within normal limits”. Also, in data set [3], the FOB results is on record as “did not affect”. In addition, the IC50 (usually the concentration at which inhibition is half-maximal) against CYP2D6 (CYP2D6, substrate Dextromethorphan, human liver microsomes) is over 25 µM; at CYP2C9 it was 14.9 µM; on CYP2C8 (CYP2C8, substrate Amodiaquine, human liver microsomes), over 25 µM; against CYP2B6 (CYP2B6, substrate Bupropion, human liver microsomes) it was over 25 µM; against CYP1A2 (CYP1A2, substrate Tacrine, human liver microsomes), over 25 µM; in [4] (CYP3A4, substrate Midazolam, human liver microsomes), 24.3 µM. The IC50 stood at 25 µM at CYP2C19 (pH 7.4, probe mephenytoin, CYP2C19, substrate Mephenytoin, human liver microsomes); 9.59 µM in [5]; 6.22 µM at human OATP1B3 (OATP1B3, HEK293 cells, read-out: IC50); 6.22 µM at human OATP1B3 (read-out: OATP1B3 IC50). The CYP2D6 inhibition result on CYP2D6 (up to 25 μM) was “Marginal to no inhibition”. Further, the CYP2C8 inhibition entry on CYP2C8 (up to 25 μM) is recorded as “Marginal to no inhibition”. Further, the CYP2B6 inhibition entry at CYP2B6 (up to 25 μM) is given as “Marginal to no inhibition”. The CYP1A2 inhibition entry on CYP1A2 (up to 25 μM) was “Marginal to no inhibition”. Besides, in data set [4] (up to 25 μM), the “CYP3A4 inhibition (midazolam as substrate)” value was “Marginal to no inhibition”. Besides, at CYP2C19 (up to 25 μM), the CYP2C19 inhibition entry is “Marginal to no inhibition”. Also, the “Maximum Percent inhibition” value at human OATP1B3 (OATP1B3, HEK293 cells) was found to be 91%.
